Data published in patent US9162992B2, “Compounds and compositions for treatment of breathing control disorders or diseases” (GALLEON PHARMACEUTICALS, INC., priority 2010, dated 2015).

Experiments:
[1] = system: morphine-induced respiratory depression; experiment: Opioid-induced respiratory depression in the rat, plethysmography (minute ventilation); assay type: in vivo; settings: morphine sulfate 10 mg/kg IV; infusion 0.10 then 0.30 mg/kg/min, 20 min each; vs vehicle
Description: Rats with pre-cannulated jugular vein (for administering drugs) were acclimated to plethysmography chambers for a minimum of 60 minutes, or until animals were no longer restless. Each animal was dosed with morphine sulfate (10 mg/kg), dissolved in sterile water at a concentration of 10 mg/mL (supplied by Baxter Healthcare Corporation), via injection into the jugular vein catheter over a period of 5-10 seconds.
Compound (XXXVI) was dissolved in 20% hydroxypropyl β-cyclodextran (20% bcd on graph) at a concentration of 0.45 mg/mL at pH 5. After a period of 5 min, compound (XXXVI), labeled as cmpd (A), was administered via infusion into the jugular vein at a dose of 0.10 mg/kg/min for 20 min and then at a dose of […] for 20 min (e.g., 20 μL/min/0.3 kg rat to yield […]).
After 20 minutes of infusion at this dose, the infusion pumps were turned off, and all animals were given a 20 minute recovery period, followed by a post-study analysis of rat health and behavior. […] Results are illustrated in FIG. 1.

[2] = system: spontaneously breathing rats; experiment: Dose-dependent effect on minute ventilation (MV) in naive rats; assay type: in vivo, rat
Description: All surgical procedures were performed under anesthesia induced by 2% isoflurane in compressed medical grade air. With rats in supine position, the right femoral vein was catheterized using polyethylene tubing (PE-50). This catheter was used for fluid and drug administration. Simultaneously, the right femoral artery was also catheterized for monitoring blood pressure. In order to measure the respiratory parameters in spontaneously breathing rats, trachea was intubated using 13 gauge tracheal tube (2.5 mm ID, Instech Solomon, Pa.).
After establishing a stable base-line at 1.5% isoflurane, cumulative dose-dependent (0.01, 0.03, 0.1, 0.3, 1, 3, 10 mg/kg) ventilatory responses to compounds (XXXVI) and (L), labeled as cmpd (A) and cmpd (B) respectively, were generated from spontaneously breathing rats. Maximum peak minute ventilatory (MV) values at each dose of corresponding drug were calculated and used for generating ED50 values.

[3] = system: opioid-induced respiratory depression; experiment: Opioid-induced respiratory depression in the monkey; assay type: in vivo, Macaca fascicularis; settings: 0.20 mg/kg/min 5 min, then 0.10 mg/kg/min 10 min
Description: Juvenile macaques (four-year-old Macaca fascicularis, 2 to 5 kg, n=13) were used for the study. Animal husbandry was conducted under USDA guidelines and the protocols were approved by the Institutional Animal Care and Use Committee of East Carolina University.
Anesthesia was induced with 5% isoflurane and then maintained with 1.5 to 2% isoflurane (100% O2, 2 L/min). Antebrachial veins were cannulated. Vivometrics Lifeshirts (Ventura, Calif.) were fitted to the animals for monitoring respiratory function by inductance plethysmography. Abdomen and rib cage deflections were calibrated using the Qualitative Diagnostic Calibration (QDC) procedure, and tidal volume was normalized to 15 mL, which represented a typical tidal volume for these animals as previously measured using conventional techniques. Heart rate was monitored continuously by 3-lead ECG.
ETCO2 was measured via a neonatal nasal cannula connected to a microstream CO2 sensor (Cardell monitor, Model 9405). SpO2 and HR were monitored by pulse oximetry using a reflectance probe (Nelcor Max-Fast) positioned on the inner aspect of the upper arm. HR was also determined from the ECG allowing measurement when animal activity compromised the integrity of pulse oximetry signals. BP was measured in anesthetized animals using a cuff positioned on the ankle. […]

With CCCNc1nc(NCCC)nc(N(C)OC)n1.O=S(=O)(O)O [XXXVI, N-(4,6-Bis-n-propylamino-[1,3,5]triazin-2-yl)-N,O-dimethyl-hydroxylamine hydrogen sulfate] the “minute ventilation, reversal of opioid-induced respiratory depression” value [1] was “significantly reversed opioid-induced respiratory depression”, the ED50 ([2]; Rattus norvegicus, iv, read-out: ED50, maximum peak minute ventilation) was 0.14 mg/kg and the “minute ventilation, dose dependence” value ([2]; cumulative IV doses, 1.5% isoflurane) was “increased minute ventilation in a dose-dependent manner”. For the same compound, the “end-tidal carbon dioxide increases caused by the opioid” value [3] was “full reversal” and the minute ventilation [3] was “increased minute ventilation”.
